Experimental data reported in the supplement of paper PMC10307832.

Columns and labels:
Test in all cases: relative viability (nuclei count vs DMSO), 5 days (fraction); higher = more cells survive
[1] = tested on: A549
Summary of the method: (§1)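 Lung cancer cell lines, seeded in 1536-well plates, were treated the following day by pin tool with a single drug or with five library-drug doses (not always all listed) in √10 steps on top of a fixed anchor-drug dose. Cells were fixed and nuclei stained in one step after 5 days, and nuclei were counted. Relative viability is the nuclei count for treated wells divided by that for vehicle wells, reported as medians of duplicate plates.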

[2] = tested on: Calu-6
Summary of the method: as §1

[3] = tested on: EBC-1
Summary of the method: as §1

[4] = tested on: HCC-78
Summary of the method: as §1

[5] = tested on: IA-LM
Summary of the method: as §1

[6] = tested on: NCI-H1299
Summary of the method: as §1

[7] = tested on: NCI-H1703
Summary of the method: as §1

[8] = tested on: NCI-H2009
Summary of the method: as §1

[9] = tested on: NCI-H358
Summary of the method: as §1

[10] = tested on: NCI-H460
Summary of the method: as §1

[11] = tested on: NCI-H661
Summary of the method: as §1

Compound `COc1cc2nccc(Oc3ccc(NC(=O)Nc4cc(C)on4)c(Cl)c3)c2cc1OC` [Tivozanib] + C[C@@H](Oc1cc(-c2cnn(C3CCNCC3)c2)cnc1N)c1c(Cl)ccc(F)c1Cl [Crizotinib] (partner 1 µM) has a relative viability ([1]; first compound 0.005 µM) of 0.765, a relative viability ([1]; first compound 0.01581 µM) of 0.793 and a relative viability ([1]; first compound 0.05 µM) of 0.694. It also gave a relative viability ([1]; first compound 0.1581 µM) of 0.828, a relative viability ([1]; first compound 0.5 µM) of 0.652 and a relative viability ([2]; first compound 0.005 µM) of 0.778. For the same compound, the relative viability ([2]; first compound 0.01581 µM) was 0.772, the relative viability ([2]; first compound 0.05 µM) was 0.706 and the relative viability ([2]; first compound 0.1581 µM) was 0.839. The relative viability ([2]; first compound 0.5 µM) was 0.711, the relative viability ([3]; first compound 0.005 µM) was 0.182 and the relative viability ([3]; first compound 0.01581 µM) was 0.186. The relative viability ([3]; first compound 0.05 µM) was 0.211, the relative viability ([3]; first compound 0.1581 µM) was 0.207 and the relative viability ([3]; first compound 0.5 µM) was 0.192. The relative viability ([4]; first compound 0.005 µM) was 0.352, the relative viability ([4]; first compound 0.01581 µM) was 0.365 and the relative viability ([4]; first compound 0.05 µM) was 0.313. The relative viability ([4]; first compound 0.1581 µM) was 0.364, the relative viability ([4]; first compound 0.5 µM) was 0.351 and the relative viability ([5]; first compound 0.01581 µM) was 0.716. The relative viability ([5]; first compound 0.05 µM) was 1.04, the relative viability ([5]; first compound 0.1581 µM) was 0.507 and the relative viability ([5]; first compound 0.5 µM) was 0.494. For the same compound, the relative viability ([6]; first compound 0.005 µM) was 0.922, the relative viability ([6]; first compound 0.01581 µM) was 0.971 and the relative viability ([6]; first compound 0.05 µM) was 0.968. It also gave a relative viability ([6]; first compound 0.1581 µM) of 0.991, a relative viability ([6]; first compound 0.5 µM) of 0.906 and a relative viability ([7]; first compound 0.005 µM) of 0.239. For the same compound, the relative viability ([7]; first compound 0.01581 µM) was 0.194, the relative viability ([7]; first compound 0.05 µM) was 0.163 and the relative viability ([7]; first compound 0.1581 µM) was 0.157. For the same compound, the relative viability ([7]; first compound 0.5 µM) was 0.155, the relative viability ([8]; first compound 0.005 µM) was 1.08 and the relative viability ([8]; first compound 0.01581 µM) was 1.02. For the same compound, the relative viability ([8]; first compound 0.05 µM) was 1.1, the relative viability ([8]; first compound 0.1581 µM) was 1.03 and the relative viability ([8]; first compound 0.5 µM) was 0.933. It also gave a relative viability ([9]; first compound 0.005 µM) of 0.594, a relative viability ([9]; first compound 0.01581 µM) of 0.706 and a relative viability ([9]; first compound 0.05 µM) of 0.622. It also gave a relative viability ([9]; first compound 0.1581 µM) of 0.604, a relative viability ([9]; first compound 0.5 µM) of 0.462 and a relative viability ([10]; first compound 0.005 µM) of 0.889. It also gave a relative viability ([10]; first compound 0.01581 µM) of 1.09, a relative viability ([10]; first compound 0.05 µM) of 0.96 and a relative viability ([10]; first compound 0.1581 µM) of 0.935. The relative viability ([10]; first compound 0.5 µM) was 0.897, the relative viability ([11]; first compound 0.005 µM) was 0.961 and the relative viability ([11]; first compound 0.01581 µM) was 0.951. It also gave a relative viability ([11]; first compound 0.05 µM) of 1.03 and a relative viability ([11]; first compound 0.5 µM) of 0.947.

Compound `Nc1ccn([C@@H]2O[C@H](CO)[C@@H](O)[C@@H]2O)c(=O)n1` [Cytarabine] + Cc1nc(NC(=O)N2CCC[C@H]2C(N)=O)sc1-c1ccnc(C(C)(C)C(F)(F)F)c1 [Alpelisib] (partner 2 µM) has a relative viability ([1]; first compound 0.005 µM) of 0.596, a relative viability ([1]; first compound 0.01581 µM) of 0.479 and a relative viability ([1]; first compound 0.05 µM) of 0.399. For the same compound, the relative viability ([1]; first compound 0.1581 µM) was 0.0482, the relative viability ([1]; first compound 0.5 µM) was 0.0328 and the relative viability ([2]; first compound 0.005 µM) was 0.925. For the same compound, the relative viability ([2]; first compound 0.01581 µM) was 0.826, the relative viability ([2]; first compound 0.05 µM) was 0.79 and the relative viability ([2]; first compound 0.1581 µM) was 0.483. For the same compound, the relative viability ([2]; first compound 0.5 µM) was 0.288, the relative viability ([3]; first compound 0.005 µM) was 0.694 and the relative viability ([3]; first compound 0.01581 µM) was 0.64. The relative viability ([3]; first compound 0.05 µM) was 0.676, the relative viability ([3]; first compound 0.1581 µM) was 0.439 and the relative viability ([3]; first compound 0.5 µM) was 0.248. It also gave a relative viability ([4]; first compound 0.005 µM) of 0.41, a relative viability ([4]; first compound 0.01581 µM) of 0.298 and a relative viability ([4]; first compound 0.05 µM) of 0.281. It also gave a relative viability ([4]; first compound 0.1581 µM) of 0.185, a relative viability ([4]; first compound 0.5 µM) of 0.202 and a relative viability ([5]; first compound 0.005 µM) of 0.784. It also gave a relative viability ([5]; first compound 0.01581 µM) of 0.591, a relative viability ([5]; first compound 0.05 µM) of 0.701 and a relative viability ([5]; first compound 0.1581 µM) of 0.259. For the same compound, the relative viability ([5]; first compound 0.5 µM) was 0.114, the relative viability ([6]; first compound 0.005 µM) was 1.13 and the relative viability ([6]; first compound 0.01581 µM) was 1.21. The relative viability ([6]; first compound 0.05 µM) was 1.13, the relative viability ([6]; first compound 0.1581 µM) was 1 and the relative viability ([6]; first compound 0.5 µM) was 1.06. The relative viability ([7]; first compound 0.005 µM) was 0.294, the relative viability ([7]; first compound 0.01581 µM) was 0.22 and the relative viability ([7]; first compound 0.05 µM) was 0.194. The relative viability ([7]; first compound 0.1581 µM) was 0.117, the relative viability ([7]; first compound 0.5 µM) was 0.143 and the relative viability ([8]; first compound 0.005 µM) was 1.14. It also gave a relative viability ([8]; first compound 0.01581 µM) of 1.13, a relative viability ([8]; first compound 0.05 µM) of 1.26 and a relative viability ([8]; first compound 0.1581 µM) of 0.937. The relative viability ([8]; first compound 0.5 µM) was 0.473, the relative viability ([9]; first compound 0.005 µM) was 0.573 and the relative viability ([9]; first compound 0.01581 µM) was 0.516. The relative viability ([9]; first compound 0.05 µM) was 0.363, the relative viability ([9]; first compound 0.1581 µM) was 0.177 and the relative viability ([9]; first compound 0.5 µM) was 0.148. For the same compound, the relative viability ([10]; first compound 0.005 µM) was 0.31, the relative viability ([10]; first compound 0.01581 µM) was 0.252 and the relative viability ([10]; first compound 0.05 µM) was 0.121. It also gave a relative viability ([10]; first compound 0.1581 µM) of 0.0355, a relative viability ([10]; first compound 0.5 µM) of 0.0251 and a relative viability ([11]; first compound 0.005 µM) of 0.811. It also gave a relative viability ([11]; first compound 0.01581 µM) of 0.733, a relative viability ([11]; first compound 0.05 µM) of 0.405 and a relative viability ([11]; first compound 0.1581 µM) of 0.24. It also gave a relative viability ([11]; first compound 0.5 µM) of 0.214.
